Key:
BD140A = experiment: qHTS cell viability (Cell Titer-Glo ATP quantitation); type: cell-based
Procedure: (§1) NCI-H295R and SW-13 cells were cultured in Dulbecco's modified Eagle medium (DMEM) supplemented with 2.5% NuSerum (BD Biosciences, San Jose, Calif.) and 0.1% ITS premix (BD Biosciences, San Jose, Calif.). BD140A cells, provided by Drs. Kimberly Bussey and Michael Demeure (Phoenix, Ariz.), were cultured in RPMI supplemented with 1% […] (Gibco, Grand Island, N.Y.), 1% penicillin-streptomycin (Gibco, Grand Island, N.Y.), and 10% fetal bovine serum (FBS; Invitrogen, Carlsbad, Calif.). The cell lines were authenticated using short tandem repeat profiling. Cells were maintained in a 5% CO2 atmosphere at 37° C.
(§2) The National Institutes of Health Chemical Genomic Center pharmaceutical library consists of 4,292 small molecules and compounds. Compounds were prepared as described previously (Mehta et al., Clin Cancer Res. 21:4123-32, 2015; hereby incorporated by reference in its entirety). The cell viability of treated cells was measured using the luciferase-coupled ATP quantitation assay, Cell Titer-Glo (Promega, Madison, Wis.). Doxorubicin hydrochloride and tetraoctylammonium bromide were used as positive controls. The final concentration of compounds in the assay ranged from 0.6 nM to 46 μM. The titration-response data was plotted and modeled by a four-parameter logistic fit-to-yield half-maximal inhibitory concentration (IC50) and efficacy (maximal response), as compared to tetraoctylammonium bromide values.

NCI-H295R [1] = experiment: as above; type: cell-based; details: Homo sapiens
Procedure: as §1, §2

SW-13 [2] = experiment: as above; type: cell-based; details: Homo sapiens, SW13; SW-13, qHTS
Procedure: as §1, §2

[3] = tested on: adrenocortical carcinoma cell lines NCIH295R, BD140A and SW-13; experiment: qHTS of 4,292 compounds, activity in all three ACC cell lines; type: cell-based; details: lower IC50 and higher efficacy vs cisplatin, doxorubicin, etoposide, mitotane, streptozocin (FIG. 1)
Procedure: as §1
as §2, with “The titration-response data was plotted and modeled by a four-parameter logistic fit-to-yield half-maximal inhibitory concentration (IC50) and efficacy (maximal response), as compared to tetraoctylammonium bromide values.” left out

[4] = tested on: three ACC cell lines (BD140A, SW-13, NCI-H295R); experiment: Cellular proliferation assay (CyQuant), monolayer culture; type: cell-based
Procedure: 3×10^3 and 6×10^3 cells were plated in 96-well plates depending on the cell line. 100 μL of fresh culture medium containing the drug or vehicle was added. Cell count was determined using the CyQuant kit (Life Technologies, Grand Island, N.Y.), according to the manufacturer's instructions, and cell number was measured using a SpectraMax M5 microplate reader (ex485/em538; Molecular Devices, Sunnyvale, Calif.). Assays were performed in quadruplicate and the experiments were repeated three times.

NCI-H295R MCAs = experiment: Three-dimensional multicellular aggregates (MCA); type: cell-based; details: after four weeks of treatment
Procedure: (§3) NCI-H295R and SW-13 cells, which form multicellular aggregates (MCA) or spheroids, were plated in Ultra Low Cluster 24-well plates (Costar, Corning, N.Y.) at 1×10^5 cells/0.5 mL or 6×10^4 cells/0.5 mL depending on the cell line. Spheroids were allowed to develop for one or two weeks at 37° C. in 5% CO2, and media was exchanged twice a week. Spheroids were treated with niclosamide or the vehicle at varying concentrations, and imaged weekly.

SW-13 MCAs = experiment: Three-dimensional multicellular aggregates (MCA); type: cell-based; details: SW-13, after three weeks of treatment
Procedure: as §3

BD140A cells [5] = experiment: Caspase 3/7 activity assay (Caspase-Glo 3/7); type: cell-based
Procedure: (§4) Cells were plated in 96-well plates and treated with niclosamide or the vehicle. Caspase 3/7 activity was measured using the Caspase-Glo 3/7 assay (Promega, Madison, Wis.), according to manufacturer's instructions.

NCI-H295R [6] = experiment: Caspase 3/7 activity assay (Caspase-Glo 3/7); type: cell-based; details: 48 hours
Procedure: as §4

SW-13 [7] = experiment: Caspase 3/7 activity assay (Caspase-Glo 3/7); type: cell-based; details: SW-13, 96 hours
Procedure: as §4

all three ACC cell lines = experiment: Cell cycle analysis (propidium iodide flow cytometry); type: cell-based; details: 48 hours, more cells in G1, fewer in S phase
Procedure: Cells plated in six-well plates were treated with niclosamide or the vehicle. At 48 hours, cells were fixed for 30 minutes in 70% ethanol at 4° C., and stained with 50 μg/mL of propidium iodide containing […] of ribonuclease A. Flow cytometry was performed on a Canto I flow cytometer (Becton-Dickinson, Franklin Lakes, N.J.) using CellQuest software (BD Biosciences, San Jose, Calif.). Data was generated for at least 20,000 events per sample and analyzed using Modfit software (Verity Software House, Inc., Topsham, Me.).

[8] = tested on: all three cell lines (ACC); experiment: Seahorse XF96 mitochondrial metabolism assay (OCR, ECAR); type: cell-based
Procedure: The Seahorse XF96 assay was performed according to the manufacturer's instructions (Seahorse Bioscience, Billerica, Mass.). Briefly, cells were plated in XF96 plates and media was replaced with unbuffered DMEM supplemented with 2 mmol of glutamine and 2.5 g/L of D-Glucose. After 1 hour in a 37° C. CO2-free incubator, the oxygen consumption rate (OCR) and extracellular acidification rate (ECAR) were measured before and after injection of the drug, the vehicle, or carbonyl cyanide 4-(trifluoromethoxy) phenylhydrazone (FCCP) using the Seahorse XF96 extracellular flux analyzer.

ACC cells = experiment: TMRE staining, mitochondrial membrane potential; type: cell-based; details: after 3 hours and 6 hours of treatment
Procedure: Cells in 96-well plates were treated with the drug or vehicle. Cells were then stained with 200 nM of tetramethylrhodamine, ethyl ester (TMRE) for 20 minutes at 37° C. and were washed with PBS; fluorescence was measured using a SpectraMax M5e 96-well fluorescence microplate reader. FCCP was used as a positive control.

β-catenin = experiment: Western blot analysis of β-catenin; type: cell-based; details: all three cell lines
Procedure: (§5) The following antibodies were used: anti-beta catenin (1:1,000) from R&D Systems (Minneapolis, Minn.); anti-GAPDH (1:3,000) from Santa Cruz Biotechnology (Dallas, Tex.); anti-N-cadherin (1:4,000) from EMD Millipore (Billerica, Mass.); and anti-vimentin (1:5,000) from Cell Signaling Technology (Boston, Mass.). Niclosamide (2′,5-dichloro-4′-nitrosalicylanilide) was purchased from Sigma-Aldrich (St. Louis, Mo.) and dissolved in DMSO for in vitro studies.
(§6) Cell lysates were analyzed by SDS-PAGE and transferred to a PVDF membrane. The membranes were incubated with the appropriate primary antibodies overnight at 4° C., followed by horseradish peroxidase conjugated IgG (anti-rabbit 1:3,000, Cell Signaling Technology; anti-mouse 1:3,000, Santa Cruz Biotechnology; anti-goat 1:2,000, R&D Systems, Inc.). Proteins were detected by enhanced chemiluminescence (ECL; Thermoscientific, Rockford, Ill.).

AKT pathway = AKT pathway inhibition (FIGS. 6A and 6B); type: cell-based; details: BD140A and H295R cells
NCI-H295R and SW-13 = experiment: Transwell (Boyden chamber) migration assay; type: cell-based; details: transwell migration assays
Procedure: (§7) NCI-H295R and SW-13 cells were plated in six-well plates and treated with varying concentrations of niclosamide or the vehicle for 24 hours. Cells were trypsinized and plated in transwell chambers (BD Biosciences, San Jose, Calif.) at a density of 1×10^5 cells per 0.5 mL. The lower chamber was filled with DMEM supplemented with 10% FBS as a chemoattractant. Cells were allowed to migrate for 24 hours or 48 hours depending on the cell line, and were fixed and stained with Diff-Quik (Dade Behring, Newark, N.J.). Cells were imaged and counted in three random fields per well, and the experiments performed in triplicate. […] The cells were scratched using a sterile pipette tip and photographed at various time points.

BD140A cells [9] = experiment: Wound-healing migration assay; type: cell-based; details: wound-heal assay, after 6 hours and 12 hours, vs vehicle control
Procedure: as §7

N-cadherin = experiment: Western blot analysis of EMT mediators; type: cell-based; details: 48 hours of treatment
Procedure: as §5, §6

vimentin = experiment: Western blot analysis of EMT mediators; type: cell-based; details: 48 hours of treatment
Procedure: as §5, §6

NCI-H295R xenografts = experiment: ACC xenograft tumor growth in vivo; set-up: species or system Nu+/Nu+ mice; details: for inhibition in tumor growth: four weeks, vs vehicle control
Procedure: Mice were maintained according to National Institutes of Health (NIH) Animal Research Advisory Committee (ARAC) guidelines. 5×10^6 NCI-H295R cells were injected into the flank of Nu^+/Nu^+mice. Tumors were allowed to grow and mice were randomized into three treatment groups (8 mice per treatment group). M ice were treated with 100 mg/kg of niclosamide, 200 mg/kg of niclosamide, or the vehicle (PEG500) everyday by oral gavage. Tumor sizes were measured in two dimensions every week with calipers and recorded.

NCI-H295R cells = experiment: Proliferation with niclosamide, mitotane or the combination (CyQuant, Chou-Talalay); type: cell-based; details: niclosamide 0.05-0.2 μM or mitotane 0.5-2 μM alone
Procedure: This example describes a method used to evaluate proliferation of H2965R adrenocortical carcinoma cells in the presence of (1) niclosamide alone (at 0.05 μM, 0.075 μM, 0.1 μM, 0.15 μM, or 0.2 μM), (2) mitotane alone (at 0.5 μM, 0.75 μM, 1 μM, 1.5 μM, or 2 μM), or (3) a combination of both niclosamide and mitotane.
NCI-H295R cells were cultured in Dulbecco modified Eagle medium (DMEM) supplemented with 2.5% NuSerum (BD Biosciences, San Jose, Calif.) and 0.1% ITS premix (BD Biosciences, San Jose, Calif.). Cells were maintained in 5% CO2 atmosphere at 37° C. 3×10^3 cells were plated in 96-well plates. […] Cell count was determined using the CyQuant kit (Life technologies, Grand Island, N.Y.) according to the manufacturer's instructions, and absorbance (cell number) was measured using a SpectraMax M5 microplate reader (Molecular Devices, Sunnyvale, Calif., ex485/em538). Assays were performed in quadruplicate and the experiments were repeated three times.
Statistical analysis was performed using GraphPad Prism 6 software (GraphPad Software, La Jolla, Calif.). Data was analyzed using a two-tailed Mann-Whitney test. Statistical significance was defined as a p-value of less than 0.05. Data are presented as mean±standard deviation (SD). […] Defined as a CI index of <1=synergistic, 1=additive, and >1 antagonistic.

[10] = humans; read-out: known Cmax in humans; cited from earlier work
[11] = cited from earlier work
[12] = in vivo; cited from earlier work

In the case of `O=C(Nc1ccc([N+](=O)[O-])cc1Cl)c1cc(Cl)ccc1O` [niclosamide, 5-chloro-N-(2-chloro-4-nitrophenyl)-2-hydrobenzamide], the IC50 (BD140A) is reported as 0.12 µM, the IC50 (NCI-H295R [1]) is reported as 0.53 µM and the IC50 (SW-13 [2]) is reported as 0.15 µM. The “activity compared to commonly used drugs for ACC” value [3] was “better activity”, the “cytotoxicity (killing pre-existing cancer cells)” value ([4]; at higher concentrations) was “cytotoxic” and the cellular proliferation ([4]; monolayer cell culture, three ACC cell lines) was “inhibited proliferation in a time- and dose-dependent manner”. The “effect on MCAs” value (NCI-H295R MCAs) was “growth inhibition and disintegration of the MCAs”, the “effect on MCAs” value (SW-13 MCAs) was “growth inhibition and disintegration of the MCAs” and the “caspase 3/7 activity” value (BD140A cells [5]) was “no increase”. For the same molecule, the “caspase 3/7 activity” value (NCI-H295R [6]) was “increased”, the “caspase 3/7 activity” value (SW-13 [7]) was “increased” and the cell cycle progression (all three ACC cell lines) was “induced G1 cell cycle arrest”. For the same molecule, the “extracellular acidification rate (ECAR)” value [8] was “increased”, the “oxygen consumption rate (OCR)” value [8] was “increased” and the “mitochondrial membrane potential (TMRE)” value (ACC cells) was “decrease”. For the same molecule, the “expression of β-catenin” value (β-catenin) was “reduced”, the AKT pathway (AKT pathway) was “inhibited” and the cellular migration (NCI-H295R and SW-13) was “Reduced”. For the same molecule, the cell migration (BD140A cells [9]) was “decreased”, the “expression of N-cadherin” value (N-cadherin) was “reduced” and the expression of vimentin (vimentin) was “reduced”. The tumor growth inhibition (NCI-H295R xenografts; 100 mg/kg and 200 mg/kg groups, 8 weeks, vs control group) was “more than 90%”, the “tolerability / toxicity in mice” value (NCI-H295R xenografts; 100 mg/kg and 200 mg/kg oral) was “no observed toxicity or side effects” and the “inhibition in tumor growth” value (NCI-H295R xenografts; 100 mg/kg everyday by oral gavage) was 60%. The “inhibition in tumor growth” value (NCI-H295R xenografts; 200 mg/kg everyday by oral gavage) was 80%, the mouse body weight (NCI-H295R xenografts; treated groups vs vehicle) was “no significant weight differences” and the “reducing proliferation of H295R cells, single agent” value (NCI-H295R cells) was “some effect”. The Cmax [10] was 18.3 µM, the water solubility [11] was “low” and the oral bioavailability [12] was “low”.

For `Clc1ccc(C(c2ccccc2Cl)C(Cl)Cl)cc1` (stereo not shown) [mitotane], the “reducing proliferation of H295R cells, single agent” value (NCI-H295R cells) was “some effect”.

From patent publication US20190054047A1, “TREATMENT OF MALIGNANT ADRENOCORTICAL TUMOR WITH NICLOSAMIDE AND OTHER COMPOUNDS” (The U.S.A., as represented by the Secretary, Department of …, priority 2016, published 2019)
